Assay results as given in patent US20230381129A1, “PERMETRIN FOR USE IN THE TREATMENT OF DEMODEX SPP INFESTATION” (priority 2020, published 2023).
Counter-ions that a name gives are not always drawn.

Columns and labels:
[1] = tested on: Demodex mites; experiment: In vitro survival study of Demodex mites on a glass slide without a coverslip; set-up: species or system Demodex spp.
Experimental: At least ten eyelashes from the upper and lower eyelids of both eyes were randomly collected from all subjects from the subsequent groups. The collected material was assessed in a UB-203i light microscope with a five-point revolver bowl and a vision track with a magnification of 4×, 10×, 20×, 40× and 100×, archiving the results with a digital camera type Toupcam TP 601300A from Touptek Photonics installed in the device.
In the case of the presence of Demodex mites, several dozen different chemical compounds in various concentrations with a potential demodicidal effect were used on the glass slide without the use of a coverslip. […] The in vitro test results for permethrin and fluralaner were archived using a Toupcam TP 601300A digital camera from Touptek Photonics mounted on the device.

[2] = tested on: Demodex spp. infestation; experiment: Topical use of shampoo or shower gel in a person with inflammation and redness; assay type: in vivo, humans; conditions: shampoo or shower gel containing 0.75% active, 3 times a week for 2 months, human
Source text: A shampoo or shower gel containing 0.75% permethrin is used 3 times a week for a period of 2 months.
Shampoo or shower gel containing 0.75% fluralaner is used 3 times a week for a period of 2 months.
A shampoo or shower gel containing 0.5% fluralaner and 0.5% permethrin is used 3 times a week for a period of 2 months.

Compound: NCC[C@H](O)C(=O)N[C@@H]1C[C@H](N)[C@@H](O[C@H]2O[C@H](CN)[C@@H](O)[C@H](O)[C@H]2O)[C@H](O)[C@H]1O[C@H]1O[C@H](CO)[C@@H](O)[C@H](N)[C@H]1O [Amikacin]
- Time of Survival of Demodex mites ([1]; concentration 0.30%): more than 15 minutes

Compound: CN1[C@@H]2CC[C@H]1CC(OC(=O)C(CO)c1ccccc1)C2.CN1[C@@H]2CC[C@H]1CC(OC(=O)C(CO)c1ccccc1)C2.O=S(=O)(O)O (stereo partly drawn) [Atropinum sulfuricum]
- Time of Survival of Demodex mites ([1]; concentration 1%): more than 15 minutes

Compound: O=C(O)c1cn(C2CC2)c2cc(N3CCNCC3)c(F)cc2c1=O [Ciprofloxacin]
- Time of Survival of Demodex mites ([1]; concentration 0.30%): more than 15 minutes

Compound: CC=CC(=O)N(CC)c1ccccc1C [Crotamiton]
- Time of Survival of Demodex mites ([1]; concentration 10%): more than 15 minutes

Compound: CN(C)CCOC(=O)C(c1ccccc1)C1(O)CCCC1 (stereo not drawn) [Cyclopentolat]
- Time of Survival of Demodex mites ([1]; concentration 1%): more than 15 minutes

Compound: CCO [Ethanol]
- Time of Survival of Demodex mites ([1]; concentration 98%): more than 15 minutes

Compound: Cc1cc(C2=NOC(c3cc(Cl)cc(Cl)c3)(C(F)(F)F)C2)ccc1C(=O)NCC(=O)NCC(F)(F)F (stereo not drawn) [Fluralaner, 4-[(5R5)-5-(3,5-dichlorophenyl)-4,5-dihydro-5-(trifluoromethyl)-1,2-oxazol-3-yl]-N-[2-oxo-2-(2,2,2-trifluoroethylamino)ethyl]-o-toluamide]
- Eyelid margin inflammation and eye symptoms (burning, itching, dry eyes, scales and deposits) after treatment [2]: reduction in inflammation of the eyelid margins
- Skin inflammation symptoms and redness after treatment [2]: visible improvement
- Time of Survival of Demodex mites ([1]; concentration 10%): 6 min

Compound: OO [Hydrogen peroxide (hydrogen peroxide), Hydrogen peroxide]
- Time of Survival of Demodex mites ([1]; concentration 3%): more than 15 minutes

Compound: C[C@H]1COc2c(N3CCN(C)CC3)c(F)cc3c(=O)c(C(=O)O)cn1c23 [Levofloxacin]
- Time of Survival of Demodex mites ([1]; concentration 0.50%): more than 15 minutes

Compound: N=C(NCCCCCCNC(=N)NC(=N)Nc1ccc(Cl)cc1)NC(=N)Nc1ccc(Cl)cc1.O=C(O)[C@H](O)[C@@H](O)[C@H](O)[C@H](O)CO.O=C(O)[C@H](O)[C@@H](O)[C@H](O)[C@H](O)CO [Manusan (chlorhexidine digluconate), chlorhexidine digluconate]
- Time of Survival of Demodex mites ([1]; concentration 4%): more than 15 minutes

Compound: O=C(OCc1ccccc1)c1ccccc1 [Novosscabin (benzyl benzoate), benzyl benzoate]
- Time of Survival of Demodex mites ([1]; concentration 30%): more than 15 minutes

Compound: CC1COc2c(N3CCN(C)CC3)c(F)cc3c(=O)c(C(=O)O)cn1c23 (stereo not drawn) [Ofloxacin]
- Time of Survival of Demodex mites ([1]; concentration 0.30%): more than 15 minutes

Compound: CC1(C)C(C=C(Cl)Cl)C1C(=O)OCc1cccc(Oc2ccccc2)c1 (stereo not drawn) [Permethrin]
- Eyelid margin inflammation and eye symptoms (burning, itching, dry eyes, scales and deposits) after treatment [2]: reduction in inflammation of the eyelid margins
- Skin inflammation symptoms and redness after treatment [2]: visible improvement
- Time of Survival of Demodex mites ([1]; concentration 10%): 5 min

Compound: CNC[C@H](O)c1cccc(O)c1.Cl [Phenylephrini hydrochloridum]
- Time of Survival of Demodex mites ([1]; concentration 10%): more than 15 minutes

Compound: CC[C@@H]1C(=O)OC[C@@H]1Cc1cncn1C.Cl [Pilocarpinum hydrochloridum]
- Time of Survival of Demodex mites ([1]; concentration 2%): more than 15 minutes

Compound: CN(C)C(=O)Oc1cccc([N+](C)(C)C)c1 [Polstigmine (neostigmine methyl sulfate), neostigmine methyl sulfate]
- Time of Survival of Demodex mites ([1]; concentration 0.05%): more than 15 minutes

Compound: NC[C@H]1O[C@H](O[C@H]2[C@H](O)[C@@H](O[C@H]3O[C@H](CO)[C@@H](O)[C@H](N)[C@H]3O)[C@H](N)C[C@@H]2N)[C@H](N)C[C@@H]1O [Tobramycin]
- Time of Survival of Demodex mites ([1]; concentration 0.30%): more than 15 minutes

Compound: NC(N)=O [Urea]
- Time of Survival of Demodex mites ([1]; concentration 20%): more than 15 minutes

Compound: Gentamicin
- Time of Survival of Demodex mites ([1]; concentration 0.30%): more than 15 minutes

Compound: Ivermectin
- Time of Survival of Demodex mites ([1]; concentration 1%): more than 15 minutes
